Measured values published in ChEMBL document CHEMBL1201862, “PubChem BioAssay data set” (2004).
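Following 48 hours of exposure in 96-well plates, responses at five concentrations were used to interpolate endpoints linearly. GI50 is the concentration that inhibits growth by half.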 Activity calls are given as the source filed them. No stated cut-off is given here; in the data, active = GI50 up to about 1.1 µM and inactive = higher.

Assays:
Assay in all cases: NCI-60 cell line screen, 48 h
786-0 = system: 786-0
COLO 205 = system: COLO 205
DU-145 = system: DU-145
HCC 2998 = system: HCC 2998
HL-60 = system: HL-60
LOX IMVI = system: LOX IMVI
MDA-MB-435 = system: MDA-MB-435
NCI-H23 = system: NCI-H23
NCI-H522 = system: NCI-H522
OVCAR-8 = system: OVCAR-8
RPMI-8226 = system: RPMI-8226
SF-268 = system: SF-268
SK-MEL-2 = system: SK-MEL-2
SK-MEL-5 = system: SK-MEL-5
SK-OV-3 = system: SK-OV-3
SN12C = system: SN12C
SNB-19 = system: SNB-19
SNB-75 = system: SNB-75
U-251 = system: U-251
UACC-257 = system: UACC-257

SMILES | GI50 (786-0) | GI50 (COLO 205) | GI50 (DU-145) | GI50 (HCC 2998) | GI50 (HL-60) | GI50 (LOX IMVI) | GI50 (MDA-MB-435) | GI50 (NCI-H23) | GI50 (NCI-H522) | GI50 (OVCAR-8) | GI50 (RPMI-8226) | GI50 (SF-268) | GI50 (SK-MEL-2) | GI50 (SK-MEL-5) | GI50 (SK-OV-3) | GI50 (SN12C) | GI50 (SNB-19) | GI50 (SNB-75) | GI50 (U-251) | GI50 (UACC-257)
COc1cc2c(cc1OC)C1(c3ccccc3)CN(C2)Cc2cc(OC)c(OC)cc21 | 31.6 µM (inactive) | 17.1 µM (inactive) | 33.7 µM (inactive) | 21.8 µM (inactive) | 19.3 µM (inactive) | 34.8 µM (inactive) | 14.5 µM (inactive) | 24.5 µM (inactive) | 26.2 µM (inactive) | 40.6 µM (inactive) | 26 µM (inactive) | 49.9 µM (inactive) | 25.7 µM (inactive) | 18.6 µM (inactive) | 45.8 µM (inactive) | > 100 µM (inactive) | 44.5 µM (inactive) | 27.9 µM (inactive) | 22.2 µM (inactive) | 40.2 µM (inactive)
O=C1O/C(=C\c2ccccc2)N(c2ccccc2)C1=O | > 100 µM (inactive) | > 100 µM (inactive) | > 100 µM (inactive) | > 100 µM (inactive) | > 100 µM (inactive) | > 100 µM (inactive) | > 100 µM (inactive) | > 100 µM (inactive) | > 100 µM (inactive) | > 100 µM (inactive) | > 100 µM (inactive) | > 100 µM (inactive) | > 100 µM (inactive) | > 100 µM (inactive) | > 100 µM (inactive) | > 100 µM (inactive) | > 100 µM (inactive) | > 100 µM (inactive) | > 100 µM (inactive) | > 100 µM (inactive)
COc1ccc(-n2nnc3c(C#N)c(-c4ccccc4)c(C)n3c2=O)cc1 | 19.1 µM (inactive) | 33.7 µM (inactive) | 74.8 µM (inactive) | 72.6 µM (inactive) | 3.69 µM (inactive) | 33.8 µM (inactive) | > 100 µM (inactive) | 80.4 µM (inactive) | 22.6 µM (inactive) | 27.4 µM (inactive) | 26.1 µM (inactive) | 83.4 µM (inactive) | 28 µM (inactive) | 14.8 µM (inactive) | > 100 µM (inactive) | 62.5 µM (inactive) | 78.7 µM (inactive) | 27.1 µM (inactive) | 32.7 µM (inactive) | 85.5 µM (inactive)
Nc1nn2c(nc(N)c3c(N)n[nH]c32)c1/N=N\c1ccc(Br)cc1 | 40.9 µM (inactive) | > 63.2 µM (inactive) | > 100 µM (inactive) | > 100 µM (inactive) | 8.15 µM (inactive) | 2.88 µM (inactive) | 3.13 µM (inactive) | > 5.61 µM (inactive) | 27.5 µM (inactive) | 21 µM (inactive) | > 100 µM (inactive) | 7.66 µM (inactive) | 12.3 µM (inactive) | > 100 µM (inactive) | > 100 µM (inactive) | 7.76 µM (inactive) | 29.9 µM (inactive) | 18.1 µM (inactive) | 6.01 µM (inactive) | 26.7 µM (inactive)
CN(C)c1ccc(C2ON=C(c3ccccc3)N2C23CC4CC(CC(C4)C2)C3)cc1 (stereo not given) | > 10 µM (inactive) | > 10 µM (inactive) | > 10 µM (inactive) | > 10 µM (inactive) | 9.55 µM (inactive) | > 10 µM (inactive) | > 10 µM (inactive) | > 10 µM (inactive) | > 10 µM (inactive) | > 10 µM (inactive) | > 10 µM (inactive) | > 10 µM (inactive) | > 10 µM (inactive) | > 10 µM (inactive) | > 10 µM (inactive) | > 10 µM (inactive) | > 10 µM (inactive) | > 10 µM (inactive) | > 10 µM (inactive) | > 10 µM (inactive)
Nc1c(C(=O)Nc2ccc([As](=O)(O)O)cc2)cnc2nnnn12 | > 100 µM (inactive) | > 100 µM (inactive) | > 100 µM (inactive) | > 100 µM (inactive) | > 100 µM (inactive) | > 100 µM (inactive) | > 100 µM (inactive) | > 100 µM (inactive) | > 100 µM (inactive) | > 100 µM (inactive) | > 100 µM (inactive) | > 100 µM (inactive) | > 100 µM (inactive) | > 100 µM (inactive) | > 100 µM (inactive) | > 100 µM (inactive) | > 100 µM (inactive) | > 100 µM (inactive) | > 100 µM (inactive) | > 100 µM (inactive)
COc1ccc(OC)c(C(=O)/C=C/c2cc(O)c(O)cc2F)c1 | 2.28 µM (inactive) | 15.5 µM (inactive) | 0.817 µM (active) | 0.538 µM (active) | 0.0361 µM (active) | 0.69 µM (active) | 0.219 µM (active) | 0.535 µM (active) | 0.272 µM (active) | 2.14 µM (inactive) | 0.678 µM (active) | 0.643 µM (active) | 1.02 µM (active) | 0.558 µM (active) | 3.35 µM (inactive) | 0.417 µM (active) | 0.619 µM (active) | 0.442 µM (active) | 0.486 µM (active) | 3.1 µM (inactive)
CCCCCCc1ccc(C(=O)NO)cc1 | 13.7 µM (inactive) | 41.5 µM (inactive) | 24.8 µM (inactive) | 65.2 µM (inactive) | 16.5 µM (inactive) | 17.2 µM (inactive) | 53.5 µM (inactive) | 28.3 µM (inactive) | 11.3 µM (inactive) | 13.1 µM (inactive) | 12.6 µM (inactive) | 25.3 µM (inactive) | 44.9 µM (inactive) | 47.1 µM (inactive) | 40.2 µM (inactive) | 21.9 µM (inactive) | 45.3 µM (inactive) | 42.9 µM (inactive) | 38.8 µM (inactive) | 44.7 µM (inactive)
Nc1ncnc2c1nc(-c1ccccc1)n2C1OC(CO)C(O)C1O (stereo not given) | > 100 µM (inactive) | > 100 µM (inactive) | > 100 µM (inactive) | > 100 µM (inactive) | > 100 µM (inactive) | > 100 µM (inactive) | > 100 µM (inactive) | > 100 µM (inactive) | > 100 µM (inactive) | > 100 µM (inactive) | > 100 µM (inactive) | > 100 µM (inactive) | > 100 µM (inactive) | > 100 µM (inactive) | > 100 µM (inactive) | > 100 µM (inactive) | > 100 µM (inactive) | > 100 µM (inactive) | > 100 µM (inactive) | > 100 µM (inactive)
CC(=O)NNc1nc(C)c(C(=O)NNC(=O)C(=O)Nc2nc3ccc([N+](=O)[O-])cc3s2)s1 | 61.5 µM (inactive) | > 81.1 µM (inactive) | 70.1 µM (inactive) | 42.1 µM (inactive) | 36.8 µM (inactive) | 54.1 µM (inactive) | 60.4 µM (inactive) | 44.1 µM (inactive) | 18.7 µM (inactive) | 52.7 µM (inactive) | 30.5 µM (inactive) | 49.1 µM (inactive) | 56.9 µM (inactive) | 42.6 µM (inactive) | 64.4 µM (inactive) | 68.2 µM (inactive) | 81.7 µM (inactive) | 29.4 µM (inactive) | 47.5 µM (inactive) | 77.8 µM (inactive)
CS(=O)(=O)OCCCCOS(=O)(=O)CF | > 100 µM (inactive) | > 100 µM (inactive) | > 100 µM (inactive) | > 100 µM (inactive) | 33.5 µM (inactive) | > 100 µM (inactive) | > 100 µM (inactive) | > 100 µM (inactive) | > 100 µM (inactive) | > 100 µM (inactive) | > 100 µM (inactive) | > 100 µM (inactive) | > 100 µM (inactive) | > 100 µM (inactive) | > 100 µM (inactive) | > 100 µM (inactive) | > 100 µM (inactive) | > 100 µM (inactive) | > 100 µM (inactive) | > 100 µM (inactive)
